For data set [1], the system named is Staphylococcus aureus. Briefly: Antibacterial activity against Staphylococcus aureus ATCC 29213 measured after 18 hrs by CLSI based broth microdilution method. The format is functional. (Dilution methods test growth across graded concentrations, often in twofold steps.)
Data set [2] deals with Staphylococcus aureus. Briefly: Antibacterial activity against methicillin-resistant Staphylococcus aureus clinical isolate 17 measured after 18 hrs by CLSI based broth microdilution method. The format is functional.
The test system of data set [3] is Staphylococcus aureus. Briefly: Antibacterial activity against methicillin-resistant Staphylococcus aureus clinical isolate 13 measured after 18 hrs by CLSI based broth microdilution method. The format is functional.
Data set [4] relates to Staphylococcus aureus. In words: Antibacterial activity against methicillin-resistant Staphylococcus aureus clinical isolate 23 measured after 18 hrs by CLSI based broth microdilution method. The format is functional.
For data set [5], the system named is Staphylococcus aureus. In words: Antibacterial activity against methicillin-resistant Staphylococcus aureus clinical isolate 16 measured after 18 hrs by CLSI based broth microdilution method. The format is functional.
For data set [6], the system named is Staphylococcus aureus. Briefly: Antibacterial activity against methicillin-resistant Staphylococcus aureus clinical isolate 21 measured after 18 hrs by CLSI based broth microdilution method. The format is functional.
Data set [7] concerns Staphylococcus aureus. Briefly: Antibacterial activity against methicillin-resistant Staphylococcus aureus clinical isolate 11 measured after 18 hrs by CLSI based broth microdilution method. The format is functional.
Data set [8] has as its system Staphylococcus aureus. In words: Antibacterial activity against methicillin-resistant Staphylococcus aureus clinical isolate 12 measured after 18 hrs by CLSI based broth microdilution method. The format is functional.
Data set [9] deals with Staphylococcus aureus. In words: Antibacterial activity against methicillin-resistant Staphylococcus aureus clinical isolate 20 measured after 18 hrs by CLSI based broth microdilution method. The format is functional.
Data set [10] has as its system Staphylococcus aureus. In words: Antibacterial activity against methicillin-resistant Staphylococcus aureus clinical isolate 22 measured after 18 hrs by CLSI based broth microdilution method. The format is functional.
For data set [11], the system named is Staphylococcus aureus. In words: Antibacterial activity against methicillin-resistant Staphylococcus aureus clinical isolate 14 measured after 18 hrs by CLSI based broth microdilution method. The format is functional.
A further data set relates to Escherichia coli. Briefly: Antibacterial activity against Escherichia coli ATCC 25922 measured after 18 hrs by CLSI based broth microdilution method. The format is functional.
Data set [12] can be described thus: Hemolytic activity in sheep erythrocyte assessed as hemolysis incubated for 1 hr by absorbance based analysis. The format is toxicity, cell-based, Ovis aries. The note with it: sheep erythrocytes.
Data set [13] can be described thus: Selectivity index, ratio of HC50 for hemolytic activity in sheep erythrocyte assessed as hemolysis to MIC for antibacterial activity against Staphylococcus aureus ATCC 29213. The format is toxicity. To be noted: sheep erythrocytes, read-out: Selectivity Index.

A value given as a limit tells only on which side of the number the result lay.

As usually defined, the MIC is the lowest concentration found to suppress growth. The low end stands for a more susceptible organism, the high end for a less susceptible organism. The HC50 is the concentration that lyses half of the red blood cells.

For `CCNC(=O)C[N+](C)(C)CCCCCOc1ccc2ccc(=O)oc2c1CC=C(C)C.[Br-]`, the MIC was found to be 64 µg/mL with Staphylococcus aureus [1]; 64 µg/mL against Staphylococcus aureus [2]; 64 µg/mL in the data set on Staphylococcus aureus [3]; 32 µg/mL in the data set with Staphylococcus aureus [4]; 32 µg/mL against Staphylococcus aureus [5]; 64 µg/mL against Staphylococcus aureus [6]. In addition, the MIC against Staphylococcus aureus [7] was 64 µg/mL; in the data set with Staphylococcus aureus [8], 64 µg/mL; with Staphylococcus aureus [9], 64 µg/mL; in the data set with Staphylococcus aureus [10], 32 µg/mL; against Staphylococcus aureus [11] it was 32 µg/mL; against Escherichia coli, > 128 µg/mL. Besides, in data set [12], the HC50 at 1 h is > 1280 µg/mL. In data set [13], the selectivity ratio is > 20.

Regarding `CCCCNC(=O)C[N+](C)(C)CCCCCOc1ccc2ccc(=O)oc2c1CC=C(C)C.[Br-]`, the minimum inhibitory concentration (MIC) against Staphylococcus aureus [1], with Staphylococcus aureus [2], with Staphylococcus aureus [3], in the data set with Staphylococcus aureus [4], with Staphylococcus aureus [5] and in the data set on Staphylococcus aureus [6] was 8 µg/mL throughout. Further, the MIC against Staphylococcus aureus [7] came to 8 µg/mL; against Staphylococcus aureus [8], 16 µg/mL; in the data set on Staphylococcus aureus [9], 8 µg/mL; in the data set on Staphylococcus aureus [10] it was 8 µg/mL; with Staphylococcus aureus [11] it was 8 µg/mL; in the data set on Escherichia coli it was 128 µg/mL. In addition, the 50% haemolytic concentration (HC50) at 1 h in data set [12] worked out at 798 µg/mL. For the same molecule, in data set [13], the selectivity ratio was 99.8.

For the molecule `CCN(CC)C(=O)C[N+](C)(C)CCCCCOc1ccc2ccc(=O)oc2c1CC=C(C)C.[Br-]`, the MIC in the data set on Staphylococcus aureus [1], with Staphylococcus aureus [2], with Staphylococcus aureus [3], against Staphylococcus aureus [4], against Staphylococcus aureus [5] and in the data set with Staphylococcus aureus [6] was 32 µg/mL each time. The MIC in the data set with Staphylococcus aureus [7] turned out to be 32 µg/mL; with Staphylococcus aureus [8] it was 64 µg/mL; with Staphylococcus aureus [9], 32 µg/mL; with Staphylococcus aureus [10], 32 µg/mL; in the data set on Staphylococcus aureus [11], 32 µg/mL; with Escherichia coli, 128 µg/mL. In data set [12], the HC50 at 1 h is > 1280 µg/mL. Further, the selectivity ratio in data set [13] amounted to 40.

On to `CCN(CC)C(=O)C[N+](C)(C)CCCCOc1ccc2ccc(=O)oc2c1CC=C(C)C.[Br-]`, for which the MIC against Staphylococcus aureus [1] amounted to 64 µg/mL; in the data set with Staphylococcus aureus [2], 64 µg/mL; in the data set on Staphylococcus aureus [3], 128 µg/mL; in the data set with Staphylococcus aureus [4], 64 µg/mL; with Staphylococcus aureus [5] it was 64 µg/mL; against Staphylococcus aureus [6], 64 µg/mL. Further, the minimal inhibitory concentration (MIC) in the data set with Staphylococcus aureus [7] is 128 µg/mL; in the data set with Staphylococcus aureus [8], 128 µg/mL; in the data set with Staphylococcus aureus [9], 64 µg/mL; in the data set on Staphylococcus aureus [10] it was 64 µg/mL; against Staphylococcus aureus [11], 64 µg/mL; in the data set on Escherichia coli, > 128 µg/mL. Besides, in data set [12], the HC50 at 1 h stood at 1220 µg/mL. Further, the selectivity ratio in [13] was found to be 19.

On to `CC(C)=CCc1c(OCCCC[N+](C)(C)CC(=O)N(CC(C)C)CC(C)C)ccc2ccc(=O)oc12.[Br-]`, for which the minimum inhibitory concentration (MIC) against Staphylococcus aureus [1] came to 4 µg/mL; with Staphylococcus aureus [2], 1 µg/mL; in the data set with Staphylococcus aureus [3] it was 4 µg/mL; against Staphylococcus aureus [4], 2 µg/mL; in the data set with Staphylococcus aureus [5], 2 µg/mL; against Staphylococcus aureus [6] it was 2 µg/mL. Besides, the minimum inhibitory concentration (MIC) against Staphylococcus aureus [7] was found to be 2 µg/mL; against Staphylococcus aureus [8] it was 4 µg/mL; against Staphylococcus aureus [9], 2 µg/mL; in the data set with Staphylococcus aureus [10], 4 µg/mL; against Staphylococcus aureus [11], 2 µg/mL; in the data set on Escherichia coli, 128 µg/mL. Also, in data set [12], the HC50 at 1 h was > 1280 µg/mL. In addition, the selectivity ratio in data set [13] is > 320.

As for `CCCCCNC(=O)C[N+](C)(C)CCCCCOc1ccc2ccc(=O)oc2c1CC=C(C)C.[Br-]`, the MIC against Staphylococcus aureus [1] was 4 µg/mL; against Staphylococcus aureus [2], 4 µg/mL; in the data set on Staphylococcus aureus [3], 4 µg/mL; in the data set with Staphylococcus aureus [4] it was 2 µg/mL; with Staphylococcus aureus [5] it was 2 µg/mL; in the data set on Staphylococcus aureus [6] it was 2 µg/mL. Besides, the MIC was found to be 4 µg/mL against Staphylococcus aureus [7]; 4 µg/mL against Staphylococcus aureus [8]; 64 µg/mL against Staphylococcus aureus [9]; 2 µg/mL in the data set on Staphylococcus aureus [10]; 2 µg/mL against Staphylococcus aureus [11]; 64 µg/mL against Escherichia coli. Moreover, the HC50 at 1 h in [12] is > 1280 µg/mL. The selectivity ratio in data set [13] was > 320.

`CCNC(=O)C[N+](C)(C)CCCCOc1ccc2ccc(=O)oc2c1CC=C(C)C.[Br-]`: the MIC against Staphylococcus aureus [1], against Staphylococcus aureus [2], in the data set on Staphylococcus aureus [3], against Staphylococcus aureus [4], with Staphylococcus aureus [5] and in the data set with Staphylococcus aureus [6] was 128 µg/mL in each case. Further, the MIC came out at 128 µg/mL in the data set with Staphylococcus aureus [7]; 128 µg/mL in the data set with Staphylococcus aureus [8]; 64 µg/mL in the data set on Staphylococcus aureus [9]; 128 µg/mL with Staphylococcus aureus [10]; 128 µg/mL against Staphylococcus aureus [11]; 128 µg/mL with Escherichia coli. For the same molecule, the HC50 at 1 h in data set [12] was > 1280 µg/mL. Besides, the selectivity ratio in data set [13] was > 10.

In the case of `CCCN(CCC)C(=O)C[N+](C)(C)CCCOc1ccc2ccc(=O)oc2c1CC=C(C)C.[Br-]`, the minimum inhibitory concentration (MIC) against Staphylococcus aureus [1] turned out to be 32 µg/mL; in the data set on Staphylococcus aureus [2] it was 16 µg/mL; against Staphylococcus aureus [3], 32 µg/mL; in the data set on Staphylococcus aureus [4] it was 32 µg/mL; with Staphylococcus aureus [5] it was 32 µg/mL; with Staphylococcus aureus [6], 32 µg/mL. Moreover, the minimum inhibitory concentration (MIC) against Staphylococcus aureus [7] is 32 µg/mL; in the data set on Staphylococcus aureus [8] it was 32 µg/mL; against Staphylococcus aureus [9], 32 µg/mL; against Staphylococcus aureus [10], 32 µg/mL; with Staphylococcus aureus [11], 16 µg/mL; against Escherichia coli, 128 µg/mL. In data set [12], the 50% haemolytic concentration (HC50) at 1 h was > 1280 µg/mL. Also, in [13], the selectivity ratio is > 40.

`CCCNC(=O)C[N+](C)(C)CCCCCOc1ccc2ccc(=O)oc2c1CC=C(C)C.[Br-]`: the MIC with Staphylococcus aureus [1] came to 32 µg/mL; against Staphylococcus aureus [2], 32 µg/mL; against Staphylococcus aureus [3], 32 µg/mL; in the data set on Staphylococcus aureus [4] it was 32 µg/mL; in the data set on Staphylococcus aureus [5], 16 µg/mL; with Staphylococcus aureus [6], 32 µg/mL. In addition, the minimum inhibitory concentration (MIC) against Staphylococcus aureus [7] is 32 µg/mL; in the data set with Staphylococcus aureus [8], 32 µg/mL; in the data set on Staphylococcus aureus [9], 32 µg/mL; in the data set on Staphylococcus aureus [10], 32 µg/mL; in the data set on Staphylococcus aureus [11], 16 µg/mL; with Escherichia coli it was 128 µg/mL. Besides, the concentration for 50% haemolysis (HC50) at 1 h in data set [12] turned out to be 1140 µg/mL. Besides, the selectivity ratio in data set [13] was found to be 35.8.

As for `CCCCCNC(=O)C[N+](C)(C)CCCCOc1ccc2ccc(=O)oc2c1CC=C(C)C.[Br-]`, the minimal inhibitory concentration (MIC) with Staphylococcus aureus [1] was found to be 8 µg/mL; against Staphylococcus aureus [2], 8 µg/mL; with Staphylococcus aureus [3] it was 16 µg/mL; against Staphylococcus aureus [4], 8 µg/mL; against Staphylococcus aureus [5], 8 µg/mL; against Staphylococcus aureus [6], 8 µg/mL. Also, the MIC came out at 8 µg/mL in the data set on Staphylococcus aureus [7]; 16 µg/mL with Staphylococcus aureus [8]; 8 µg/mL in the data set with Staphylococcus aureus [9]; 8 µg/mL in the data set on Staphylococcus aureus [10]; 8 µg/mL against Staphylococcus aureus [11]; 64 µg/mL in the data set on Escherichia coli. In data set [12], the HC50 at 1 h is > 1280 µg/mL. The selectivity ratio in data set [13] was > 160.

On to `CCCCCCNC(=O)C[N+](C)(C)CCCOc1ccc2ccc(=O)oc2c1CC=C(C)C.[Br-]`, for which the MIC in the data set with Staphylococcus aureus [1] was 4 µg/mL; with Staphylococcus aureus [2], 4 µg/mL; with Staphylococcus aureus [3] it was 8 µg/mL; in the data set with Staphylococcus aureus [4], 4 µg/mL; in the data set on Staphylococcus aureus [5], 4 µg/mL; against Staphylococcus aureus [6], 4 µg/mL. In addition, the MIC is 4 µg/mL with Staphylococcus aureus [7]; 8 µg/mL in the data set on Staphylococcus aureus [8]; 4 µg/mL in the data set on Staphylococcus aureus [9]; 4 µg/mL against Staphylococcus aureus [10]; 4 µg/mL in the data set on Staphylococcus aureus [11]; 32 µg/mL with Escherichia coli. Besides, the 50% haemolytic concentration (HC50) at 1 h in data set [12] is > 1280 µg/mL. Besides, the selectivity ratio in data set [13] is > 320.

These data come from ChEMBL document CHEMBL5500372, “Novel natural osthole-inspired amphiphiles as membrane targeting antibacterials against methicillin-resistant Staphylococcus aureus (MRSA)” (Eur J Med Chem, 2024).
